Laboratory results taken from patent US20260285850A1, “SUBSTITUTED OXAZOLIDINONES AND IMIDAZOLINONES AS HERBICIDES” (FMC CORPORATION, priority 2023, published 2026).

Columns and labels:
Format in all cases: in vivo
[1] = tested on: soybean (Glycine max); experiment: Test A preemergence soil spray, visual injury rating 0-100; conditions: 10 days
How it was run: (§1)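 Rating: visual, day 10, untreated plants as reference, 0 no effect to 100 full control. Plants were in loam-sand and were treated either preemergence via directed soil spray or postemergence at the one- to two-leaf stage.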

[2] = tested on: kochia (Bassia scoparia); experiment: as above; conditions: 10 days
How it was run: as §1

[3] = tested on: barnyardgrass (Echinochloa crus-galli); experiment: as above; conditions: 10 days
How it was run: as §1

[4] = tested on: ragweed (common ragweed, Ambrosia artemisiifolia); experiment: as above; conditions: 10 days
How it was run: as §1

[5] = tested on: corn (Zea mays); experiment: as above; conditions: 10 days
How it was run: as §1

[6] = tested on: wheat (Triticum aestivum); experiment: as above; conditions: 10 days
How it was run: as §1

[7] = tested on: blackgrass (Alopecurus myosuroides); experiment: as above; conditions: 10 days
How it was run: as §1

[8] = tested on: palmer (palmer amaranth, palmer pigweed, Amaranthus palmeri); experiment: as above; conditions: 10 days
How it was run: as §1

[9] = tested on: oat, wild (wild oat, Avena fatua); experiment: as above; conditions: 10 days
How it was run: as §1

[10] = tested on: green foxtail (Setaria viridis); experiment: as above; conditions: 10 days
How it was run: as §1

[11] = tested on: ryegrass, Italian (italian ryegrass, Lolium multiflorum); experiment: as above; conditions: 10 days
How it was run: as §1

[12] = tested on: rice (Oryza sativa); experiment: Test B flooded paddy test, visual plant response rating 0-100; conditions: 250 g ai/ha, Flood, applied to paddy water, evaluated after 13 days
How it was run: (§2)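 Plants were grown to the 2-leaf stage, then pots were flooded to 3 cm above the soil and test compounds were applied directly into the paddy water. Water depth was held there throughout; after 13 days in a greenhouse, injury was scored visually against untreated controls.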

[13] = tested on: ducksalad (Heteranthera limosa); experiment: as above; conditions: 250 g ai/ha, Flood, applied to paddy water, evaluated after 13 days
How it was run: as §2

[14] = tested on: sedge, umbrella (small-flower umbrella sedge, Cyperus difformis); experiment: as above; conditions: 250 g ai/ha, Flood, applied to paddy water, evaluated after 13 days
How it was run: as §2

[15] = tested on: barnyardgrass (Echinochloa crusgalli); experiment: as above; conditions: 250 g ai/ha, Flood, applied to paddy water, evaluated after 13 days
How it was run: as §2

[16] = tested on: soybean (Glycine max); experiment: Test A postemergence application, visual injury rating 0-100
How it was run: as §1

[17] = tested on: kochia (Bassia scoparia); experiment: as above
How it was run: as §1

[18] = tested on: horseweed (Erigeron canadensis); experiment: as above
How it was run: as §1

[19] = tested on: barnyardgrass (Echinochloa crus-galli); experiment: as above
How it was run: as §1

[20] = tested on: ragweed (common ragweed, Ambrosia artemisiifolia); experiment: as above
How it was run: as §1

[21] = tested on: corn (Zea mays); experiment: as above
How it was run: as §1

[22] = tested on: wheat (Triticum aestivum); experiment: as above
How it was run: as §1

[23] = tested on: blackgrass (Alopecurus myosuroides); experiment: as above
How it was run: as §1

[24] = tested on: palmer (palmer amaranth, palmer pigweed, Amaranthus palmeri); experiment: as above
How it was run: as §1

[25] = tested on: oat, wild (wild oat, Avena fatua); experiment: as above
How it was run: as §1

[26] = tested on: green foxtail (Setaria viridis); experiment: as above
How it was run: as §1

[27] = tested on: galium (catchweed bedstraw, Galium aparine); experiment: as above
How it was run: as §1

[28] = tested on: ryegrass, Italian (italian ryegrass, Lolium multiflorum); experiment: as above
How it was run: as §1

[29] = 62 g ai/ha, 0 = no effect, 100 = complete control
[30] = 62 g ai/ha, postemergence, 10 days, 0 = no effect, 100 = complete control
[31] = Postemergence, 16 g ai/ha, greenhouse 10 days, 0 no effect, 100 complete control

COC(=O)C1C=CC(NC(=O)C2(C)CN(c3cc(F)cc(F)c3)C(=O)O2)C1 (mixture of isomers) [Compound 161]
80: Barnyardgrass plant response rating ([3]; 16 g ai/ha, 0 to 100 scale) | Corn plant response rating (0-100) [5, 29] | Wheat plant response rating ([6]; 16 g ai/ha, 0 to 100 scale) | Plant response rating, Ducksalad (0 to 100 scale, 0 is no effect and 100 is complete control) [13] | Barnyardgrass plant response rating (0 to 100 scale) [19, 31] | Galium plant response rating (0 to 100 scale) [27, 31] | Ryegrass, Italian plant response rating (0-100) [28, 30]
30: Corn plant response rating ([5]; 16 g ai/ha, 0 to 100 scale) | Oat, Wild plant response rating ([9]; 16 g ai/ha, 0 to 100 scale) | Foxtail, Green plant response rating ([10]; 16 g ai/ha, 0 to 100 scale) | Kochia plant response rating (0-100) [17, 30]
50: Soybean plant response rating (0-100) [1, 29] | Kochia plant response rating (0-100) [2, 29] | Ragweed plant response rating (0-100) [4, 29] | Ragweed plant response rating (0 to 100 scale) [20, 31]
10: Ragweed plant response rating ([4]; 16 g ai/ha, 0 to 100 scale)
40: Pigweed, Palmer plant response rating (0 to 100 scale) [24, 31]
95: Plant response rating, Sedge, Umbrella (0 to 100 scale, 0 is no effect and 100 is complete control) [14]
60: Plant response rating, Barnyardgrass (0 to 100 scale, 0 is no effect and 100 is complete control) [15] | Soybean plant response rating (0 to 100 scale) [16, 31] | Horseweed plant response rating (0 to 100 scale) [18, 31] | Foxtail, Green plant response rating (0 to 100 scale) [26, 31]
100: Barnyardgrass plant response rating (0-100) [3, 29] | Pigweed, Palmer plant response rating (0-100) [8, 29] | Foxtail, Green plant response rating (0-100) [10, 29] | Barnyardgrass plant response rating (0-100) [19, 30] | Corn plant response rating (0-100) [21, 30] | Corn plant response rating (0 to 100 scale) [21, 31]
0: Soybean plant response rating ([1]; 16 g ai/ha, 0 to 100 scale) | Kochia plant response rating ([2]; 16 g ai/ha, 0 to 100 scale) | Kochia plant response rating (0 to 100 scale) [17, 31]
90: Wheat plant response rating (0-100) [6, 29] | Blackgrass plant response rating (0-100) [7, 29] | Pigweed, Palmer plant response rating ([8]; 16 g ai/ha, 0 to 100 scale) | Oat, Wild plant response rating (0-100) [9, 29] | Ryegrass, Italian plant response rating ([11]; 16 g ai/ha, 0 to 100 scale) | Ryegrass, Italian plant response rating (0-100) [11, 29] | Wheat plant response rating (0-100) [22, 30] | Wheat plant response rating (0 to 100 scale) [22, 31] | Blackgrass plant response rating (0-100) [23, 30] | Blackgrass plant response rating (0 to 100 scale) [23, 31] | Oat, Wild plant response rating (0-100) [25, 30] | Oat, Wild plant response rating (0 to 100 scale) [25, 31] | Foxtail, Green plant response rating (0-100) [26, 30] | Galium plant response rating (0-100) [27, 30]
70: Blackgrass plant response rating ([7]; 16 g ai/ha, 0 to 100 scale) | Soybean plant response rating (0-100) [16, 30] | Horseweed plant response rating (0-100) [18, 30] | Ragweed plant response rating (0-100) [20, 30] | Pigweed, Palmer plant response rating (0-100) [24, 30] | Ryegrass, Italian plant response rating (0 to 100 scale) [28, 31]
85: Plant response rating, Rice (0 to 100 scale, 0 is no effect and 100 is complete control) [12]
